Data published in patent US12077503B2, “Substituted cyclic amides and their use as herbicides” (FMC CORPORATION, priority 2015, dated 2024).

Experiments:
Format in all cases: in vivo
rice (Oryra sativa) = assay: Test B flooded paddy test; conditions: Flood, 250 g ai/ha; 0 to 100 scale where 0 is no effect and 100 is complete control; 13 to 15 d
Procedure, shortened: (§1)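 Rating scale 0–100 (visual, vs untreated controls) after a 13–15 d greenhouse period; application to the flood layer, 3 cm above soil and maintained; plants at 2-leaf stage when treated.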

[1] = system: barnyardgrass (Echinochloa crus-galli); assay: Test B flooded paddy test; conditions: Flood, 250 g ai/ha; 0 to 100 scale where 0 is no effect and 100 is complete control; 13 to 15 d
Procedure, shortened: as §1

[2] = system: ducksalad (Heteranthera limosa); assay: Test B flooded paddy test; conditions: Flood, 250 g ai/ha; 0 to 100 scale where 0 is no effect and 100 is complete control; 13 to 15 d
Procedure, shortened: as §1

[3] = system: sedge, umbrella (small-flower umbrella sedge, Cyperus difformis); assay: Test B flooded paddy test; conditions: Flood, 250 g ai/ha
Procedure, shortened: as §1

corn (Zea mays) = assay: Test A postemergence
Procedure, shortened: (§2)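 Visual injury, scored on a 0–100 scale relative to untreated controls, was recorded about 10 d after application. Treatments were a preemergence soil spray over planted seeds or a postemergence spray on plants at the one- to two-leaf stage, 2 to 10 cm tall, all in loam soil–sand blend in the greenhouse.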

[4] = system: Galium (catchweed bedstraw, Galium aparine); assay: Test A postemergence
Procedure, shortened: as §2

Kochia (Kochia scoparia) [5] = assay: Test A postemergence
Procedure, shortened: as §2

[6] = system: barnyardgrass (Echinochloa crus-galli); assay: Test A postemergence
Procedure, shortened: as §2

[7] = system: ryegrass, Italian (Italian ryegrass, Lolium multiflorum); assay: Test A postemergence
Procedure, shortened: as §2

[8] = system: ragweed (common ragweed, Ambrosia elatior); assay: Test A postemergence
Procedure, shortened: as §2

[9] = system: blackgrass (Alopecurus myosuroides); assay: Test A postemergence
Procedure, shortened: as §2

[10] = system: giant foxtail (Setaria faberii); assay: Test A postemergence
Procedure, shortened: as §2

[11] = system: wheat (Triticum aestivum); assay: Test A postemergence
Procedure, shortened: as §2

[12] = system: pigweed (Amaranthus retroflexus); assay: Test A postemergence
Procedure, shortened: as §2

Kochia (Kochia scoparia) [13] = assay: Test A preemergence
Procedure, shortened: as §2

[14] = system: barnyardgrass (Echinochloa crus-galli); assay: Test A preemergence
Procedure, shortened: as §2

[15] = system: ryegrass, Italian (Italian ryegrass, Lolium multiflorum); assay: Test A preemergence
Procedure, shortened: as §2

[16] = system: ragweed (common ragweed, Ambrosia elatior); assay: Test A preemergence
Procedure, shortened: as §2

[17] = system: giant foxtail (Setaria faberii); assay: Test A preemergence
Procedure, shortened: as §2

[18] = system: pigweed (Amaranthus retroflexus); assay: Test A preemergence
[19] = 125 g ai/ha, postemergence, visual injury after approximately 10 d, 0 to 100 scale (0 no effect, 100 complete control)
[20] = 500 g ai/ha, postemergence, visual injury, 0 to 100 scale (0 no effect, 100 complete control), approx. 10 d
[21] = 125 g ai/ha, postemergence, visual rating after approx. 10 d, 0 to 100 scale (0 no effect, 100 complete control)
[22] = 125 g ai/ha, Preemergence, visual injury after approximately 10 d, 0 to 100 scale where 0 is no effect and 100 is complete control
[23] = 500 g ai/ha, preemergence, 0 to 100 scale, 0 = no effect, 100 = complete control
[24] = 125 g ai/ha, preemergence, visual rating after approx. 10 d, 0 to 100 scale where 0 is no effect and 100 is complete control
[25] = Postemergence, 500 g ai/ha, 0 to 100 scale where 0 is no effect and 100 is complete control

## CN1CC(c2ccc(C(C)(F)F)cc2)C(C(=O)Nc2ccccc2S(C)(=O)=O)C1=O (stereo not drawn) [Compound 692]
Rice (Oryra sativa)
  Plant response rating, Rice: 0
[1]
  Plant response rating, Barnyardgrass: 0
[2]
  Plant response rating, Ducksalad: 20
[3]; scale of 0 to 100 where 0 is no effect and 100 is complete control
  Sedge, Umbrella plant response rating: 0
Corn (Zea mays); [19]
  Plant response rating, Corn: 0
Corn (Zea mays); [20]
  Plant response rating, Corn: 50
[4]; [19]
  Plant response rating, Galium: 0
[4]; [20]
  Plant response rating, Galium: 60
Kochia (Kochia scoparia) [5]; [19]
  Plant response rating, Kochia: 40
Kochia (Kochia scoparia) [5]; [20]
  Plant response rating, Kochia: 60
[6]; [21]
  Plant response rating, Barnyardgrass: 70
[6]; [20]
  Plant response rating, Barnyardgrass: 80
[7]; [19]
  Plant response rating, Ryegrass, Italian: 50
[7]; [20]
  Plant response rating, Ryegrass, Italian: 60
[8]; [19]
  Plant response rating, Ragweed: 0
[8]; [20]
  Plant response rating, Ragweed: 30
[9]; [21]
  Plant response rating, Blackgrass: 50
[9]; [20]
  Plant response rating, Blackgrass: 60
[10]; [19]
  Plant response rating, Foxtail, Giant: 70
[10]; [20]
  Plant response rating, Foxtail, Giant: 80
[11]; [19]
  Plant response rating, Wheat: 0
[11]; [20]
  Plant response rating, Wheat: 50
[12]; [19]
  Plant response rating, Pigweed: 40
[12]; [20]
  Plant response rating, Pigweed: 50
Kochia (Kochia scoparia) [13]; [22]
  Plant response rating, Kochia: 70
Kochia (Kochia scoparia) [13]; [23]
  Plant response rating, Kochia: 80
[14]; [22]
  Plant response rating, Barnyardgrass: 70
[14]; [23]
  Plant response rating, Barnyardgrass: 90
[15]; [24]
  Plant response rating, Ryegrass, Italian: 20
[15]; [23]
  Plant response rating, Ryegrass, Italian: 60
[16]; [24]
  Plant response rating, Ragweed: 50
[16]; [23]
  Plant response rating, Ragweed: 70
[17]; [22]
  Plant response rating, Foxtail, Giant: 80
[17]; [23]
  Plant response rating, Foxtail, Giant: 90
[18]; [24]
  Plant response rating, Pigweed: 80
[18]; [23]
  Plant response rating, Pigweed: 90

## N#Cc1cccc(C2CNC(=O)C2C(=O)Nc2cccc(F)c2F)c1 (stereo not drawn) [Compound 621]
Rice (Oryra sativa)
  Plant response rating, Rice: 20
[1]
  Plant response rating, Barnyardgrass: 50
[2]
  Plant response rating, Ducksalad: 100
[3]; 0 to 100 scale where 0 is no effect and 100 is complete control, 13 to 15 d
  Plant response rating, Sedge, Umbrella: 0
Corn (Zea mays); [21]
  Plant response rating, Corn: 0
Corn (Zea mays); [25]
  Plant response rating, Corn: 20
[4]; [21]
  Plant response rating, Galium: 30
[4]; [25]
  Plant response rating, Galium: 40
Kochia (Kochia scoparia) [5]; [21]
  Plant response rating, Kochia: 0
Kochia (Kochia scoparia) [5]; [25]
  Plant response rating, Kochia: 20
[6]; [21]
  Plant response rating, Barnyardgrass: 90
[6]; [25]
  Plant response rating, Barnyardgrass: 90
[7]; [21]
  Plant response rating, Ryegrass, Italian: 0
[7]; [25]
  Plant response rating, Ryegrass, Italian: 20
[8]; [21]
  Plant response rating, Ragweed: 0
[8]; [25]
  Plant response rating, Ragweed: 0
[9]; [21]
  Plant response rating, Blackgrass: 0
[9]; [25]
  Plant response rating, Blackgrass: 20
[10]; [21]
  Plant response rating, Foxtail, Giant: 70
[10]; [25]
  Plant response rating, Foxtail, Giant: 90
[11]; [21]
  Plant response rating, Wheat: 0
[11]; [25]
  Plant response rating, Wheat: 50
[12]; [21]
  Plant response rating, Pigweed: 0
[12]; [25]
  Plant response rating, Pigweed: 0
Kochia (Kochia scoparia) [13]; [22]
  Plant response rating, Kochia: 0
Kochia (Kochia scoparia) [13]; [23]
  Plant response rating, Kochia: 40
[14]; [22]
  Plant response rating, Barnyardgrass: 90
[14]; [23]
  Plant response rating, Barnyardgrass: 90
[15]; [22]
  Plant response rating, Ryegrass, Italian: 0
[15]; [23]
  Plant response rating, Ryegrass, Italian: 40
[16]; [22]
  Plant response rating, Ragweed: 0
[16]; [23]
  Plant response rating, Ragweed: 90
[17]; [22]
  Plant response rating, Foxtail, Giant: 90
[17]; [23]
  Plant response rating, Foxtail, Giant: 90
[18]; [22]
  Plant response rating, Pigweed: 0
[18]; [23]
  Plant response rating, Pigweed: 20
